Assay results from patent US20210116454A1, “METHODS FOR TREATING A HEMATOLOGICAL CANCER AND THE USE OF COMPANION BIOMARKERS FOR 2-(2,6-DIOXOPIPERIDIN-3-YL)-4-((2-FLUORO-4-((3-MORPHOLINOAZETIDIN-1-YL)METHYL)BENZYL)AMINO)ISOINDOLINE-1,3-DIONE” (CELGENE CORPORATION, priority 2019, published 2021).
pIC50: −log10 of the molar value.

Experiments:
Format in all cases: cell-based
[1] = test system: U2932; assay: 5-day viable cell number and apoptosis (7-AAD exclusion/Annexin V flow cytometry); settings: Homo sapiens; U2932 cells (Table 3); read-out: IC50
Method in brief: (§1)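 Each lymphoma line in the panel receives increasing doses of compound. At day 5, viable cell number and apoptosis (Annexin V, 7-AAD exclusion by flow cytometry) are determined.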

[2] = test system: SU-DHL-4; assay: as above; settings: Homo sapiens; SU-DHL-4 cells (Table 3); read-out: IC50
Method in brief: as §1

[3] = test system: SU-DHL-16; assay: as above; settings: Homo sapiens; SU-DHL-16 cells (Table 3); read-out: IC50
Method in brief: as §1

[4] = test system: Toledo; assay: as above; settings: Homo sapiens; Toledo cells (Table 3); read-out: IC50
Method in brief: as §1

[5] = test system: HT; assay: as above; settings: Homo sapiens; HT cells (Table 3); read-out: IC50
Method in brief: as §1

[6] = test system: SU-DHL-10; assay: as above; settings: Homo sapiens, SU-DHL10; SU-DHL-10 cells (Table 3); read-out: IC50
Method in brief: as §1

[7] = test system: DB; assay: as above; settings: Homo sapiens; DB cells (Table 3)
Method in brief: as §1

[8] = test system: Pfeiffer; assay: as above; settings: Homo sapiens; Pfeiffer cells (Table 3)
Method in brief: as §1

[9] = test system: KARPAS-1106P; assay: as above; settings: Homo sapiens; KARPAS-1106P cells (Table 3); read-out: IC50
Method in brief: as §1

[10] = test system: OCI-LY-19; assay: as above; settings: Homo sapiens, OCI-LY19; OCI-LY-19 cells (Table 3); read-out: IC50
Method in brief: as §1

[11] = test system: KARPAS-422; assay: as above; settings: Homo sapiens; KARPAS-422 cells (Table 3); read-out: IC50
Method in brief: as §1

[12] = test system: DLBCL cell lines; assay: Panel of twenty three DLBCL cell lines, 5-day viable cells and apoptosis; settings: panel of twenty three cell lines
Method: Compound 1 activity was evaluated in a panel of twenty three DLBCL cell lines. The DLBCL panel includes seven cell lines classified as activated B-cell (ABC) subtype, thirteen cell lines classified as the germinal center B-cell (GCB) subtype, and three cell lines classified as primary mediastinal B-cell lymphoma (PMBL). […] Thus, eleven cell lines have a t(8;14)(q24;q32) and/or t(14;18)(q32;q21.3), corresponding to MYC and BCL2 gene rearrangements into an immunoglobulin (IG) heavy chain locus as well as additional rearrangements affecting BCL6 (Table 1). The translocation of MYC, BCL6, or BCL2 to an IG locus usually leads to high levels of mRNA and protein due to the active transcription driven by a constitutively active IG promoter. Therefore, the protein levels of these genes were monitored by Western blots, confirming the overexpression of BCL2, MYC, and/or BCL6 in all the cell lines evaluated (FIG. 1, panel A). Expressions of CRBN protein and known substrates, Ikaros, Aiolos, and ZFP91 were also evaluated (FIG. 1, panels B and C).
The panel of cell lines were treated with increasing doses of compounds for five days, at which time the number of viable cells was measured and the amount of apoptosis was determined by 7-AAD exclusion and Annexin V staining using flow cytometry. […] Overall, the sensitivity to Compound 1 was independent of cell of origin (COO), since ABC, GCB, and PMBL subtypes were sensitive to Compound 1 (Table 2).

- pIC50 [2]: 6.00
- pIC50 [3]: 5.82
- pIC50 [6]: 6.22
- pIC50 [9]: 5.77
- pIC50 [10]: 5.70
- pIC50 [11]: 6.00
SMILES: COc1cccc2c1C(=O)c1c(O)c3c(c(O)c1C2=O)C[C@@](O)(C(=O)CO)C[C@@H]3O[C@H]1C[C@H](N)[C@H](O)[C@H](C)O1 [Doxorubicin, reference compound]
- pIC50 [1]: 5.52
- pIC50 [4]: 5.40
- pIC50 [5]: 5.70
- pIC50 [7]: 5.42
- pIC50 [8]: 5.52
- sensitivity of all DLBCL cell lines [12]: strongly sensitive
